According to ChEMBL document CHEMBL6074645, “Structure-based virtual screening discovers novel PKMYT1 inhibitors” (RSC Med Chem, 2024):

molecular target: T1, Membrane-associated tyrosine- and threonine-specific cdc2-inhibitory kinase (Homo sapiens, UniProt Q99640); test: Inhibition of PKMYT1 (unknown origin) incubated for 1 hr by LanthaScreen Eu kinase binding method
T1 sequence (Q99640 whole entry): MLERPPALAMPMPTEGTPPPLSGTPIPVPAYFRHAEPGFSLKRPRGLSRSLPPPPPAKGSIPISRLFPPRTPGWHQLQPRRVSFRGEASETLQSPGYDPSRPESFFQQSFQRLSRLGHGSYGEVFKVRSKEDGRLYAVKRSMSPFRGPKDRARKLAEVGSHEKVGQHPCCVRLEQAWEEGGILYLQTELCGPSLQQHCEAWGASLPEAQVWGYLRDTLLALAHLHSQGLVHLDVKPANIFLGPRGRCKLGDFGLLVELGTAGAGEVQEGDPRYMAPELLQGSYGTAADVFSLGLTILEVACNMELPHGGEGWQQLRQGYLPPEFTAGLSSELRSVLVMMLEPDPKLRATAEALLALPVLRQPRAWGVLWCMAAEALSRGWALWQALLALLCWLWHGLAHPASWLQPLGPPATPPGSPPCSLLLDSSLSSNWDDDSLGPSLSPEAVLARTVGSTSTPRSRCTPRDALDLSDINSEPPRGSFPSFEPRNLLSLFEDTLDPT

SMILES	IC50 [nM]
COc1ccc(-c2oc3c(CC=C(C)C)c(O)cc(O)c3c(=O)c2O)cc1 [ICARITIN]	51000
O=C(O[C@@H]1Cc2c(O)cc(O)cc2O[C@H]1c1cc(O)c(O)c(O)c1)c1cc(O)c(O)c(O)c1 [GALLOCATECHIN GALLATE]	159
O=C(O[C@@H]1Cc2c(O)cc(O)cc2O[C@@H]1c1cc(O)c(O)c(O)c1)c1cc(O)c(O)c(O)c1 [EPIGALOCATECHIN GALLATE]	137
O=c1cc(-c2ccc(O)c(O)c2)oc2cc(O)cc(O)c12 [LUTEOLIN]	1500
O=c1c(-c2ccc(O)cc2)coc2cc(O)cc(O)c12 [GENISTEIN]	78000

molecular target: T1, Membrane-associated tyrosine- and threonine-specific cdc2-inhibitory kinase; test: Displacement of fluorescently labeled tracer from human PKMYT1 (75 to 362 residues) expressed in Escherichia coli BL21 (DE3) by fluorescence anisotropy based kinase assay

IC50 [nM]	SMILES
72	CCN(CC)CCOc1ccc(Nc2ncc3cc(-c4c(Cl)cccc4Cl)c(=O)n(C)c3n2)cc1 [PD-0166285]
